Measured values: patent publication US4552895A, “Furo[3,2-b]furan-2-(3H)-ones” (Eli Lilly and Company, priority 1983, dated 1985)

What was measured:
[1] = test system: angiogenesis factor; experiment: Tumor angiogenesis inhibition in vivo: serpentine vessels induced by lysosomal-mitochondrial preparation from 3683 Morris hepatoma in mice; parameters: species or system mice (SPF/ND4 female); conditions: Mus musculus, ip, mice sacrificed after 24 hours, average number of serpentine vessels vs control
Description: Lysosomal-mitochondrial pellets containing angiogenesis factor are prepared from 3683 Morris hepatoma. The pellet is diluted with 7-8 ml. of 15% ficoll. At this dilution, 8-10 serpentine vessels are usually produced per 0.2 cc. injection as described below for the control group.
Next, 15 SPF/ND4 female mice weighing 20-22 g. are shaved on the left side and then divided into three groupss of five each. One group (drug group) is injected subcutaneously and laterally with 0.2 cc. of the lysosomal-mitochondrial preparation diluted with 15% ficoll. This group of mice is then dosed individually by the intraperitoneal route with 0.5 cc. of a solution or suspension in a standard vehicle containing the compound under test, usually at an initial dose level of 300 mg./kg. If this dose level is toxic, two-fold dilutions are made until all mice survive a single dose. The second group of mice (control group) is injected subcutaneously and laterally with 0.2 cc. of the lysosomal-mitochondrial suspension diluted with ficoll and dosed intraperitoneally with 0.5 cc. of the vehicle alone. The third group of mice (negative control) is injected with the ficoll solution only (without the lysosomal-mitochondrial pellet) without treatment with compound or vehicle. The mice are sacrificed after 24 hours. Each mouse is placed on its side on a dissecting board with the shaved side up. Starting at the flank, the skin is cut straight to the back of the animal. A similar cut is made behind the front leg. The skin is then cut along the back making a flap of about one inch by two inches. The skin is carefully separated from the connective tissue by using forceps and a scalpel. The skin flap is then laid back exposing the lysosomal-mitochondrial implant which is attached to the skin. The skin flap is gently flattened out and with the use of a binocular dissecting scope, serpentine vessels are observed around the lysosomal-mitochondrial implant and their number counted. All observations of the number of serpentine vessels are made at the same power of the microscope (1×). The average number of serpentine vessels for each group is calculated. The percent inhibition is then calculated according to the following equation. [formula] where sv=averge number of serpentine vessels.
If the negative control group described above has any serpentine vessels, the test is invalid due to contamination of the ficoll solution.

[2] = test system: Collagen-Induced Arthritis; experiment: Collagen-induced arthritis assay (type II collagen, hindpaw volume) in rats; type: in vivo, inbred Lewis male rats; conditions: oral gavage 5 days per week from day 1 to day 28 or 30
Description: This test method is a collagen arthritis assay carried out as follows.
Type II collagen is isolated from bovine articular cartilage by the method of Strawich and Nimni [Biochemistry, 10, 3905 (1971)]. The collagen is dissolved in 0.1M acetic acid and stored at -20° C. Type II collagen solution is diluted to 2 mg./ml. concentration and emulsified thoroughly with an equal volume of incomplete Freund's adjuvant (ICFA). The emulsion containing approximately 0.5 mg. of collagen is injected intradermally on day 0 to groups of 6 inbred Lewis male rats (Charles River Breeders; 170-200 g.) at various sites in the dorsal area. The hindpaw volumes of each rat are measured and recorded three times a week throughout the test period to assess the inflammatory reaction. The test group animals receive compounds under test as suspensions in carboxymethylcellulose vehicle, by oral gavage, 5 days per week (Monday-Friday), beginning on day 1. Control animals receive vehicle without a test compound. At the end of the test (day 28 or 30), the blood of these animals is drawn by cardiac puncture and the serum anti-type II collagen antibody levels are estimated by passive hemagglutination technique, using glutaraldehyde treated sheep red cells, to which type II collagen is conjugated [Avrameas et al., Immunochemistry, 6, 67 (1969); Andriopoulos et al., Arth. Rheum., 19, 613 (1976)]. The cellular response or delayed-type hypersensitivity response to type II collagen is measured by the radiometric ear index assay [Kostiala, Immunology, 33, 561 (1977)]. In certain experiments, the bone damage occurring because of immunization with type II collagen and the effects of drugs are determined from the radiographs of the hindpaws of two or three representative animals from each group. Injections of ICFA without collagen II were employed to some rats as a negative control; these rats received only […] vehicle during the test.
The % inhibition is calculated according to the following formula: [formula] where Vt is the hindpaw volume of a compound-treated animal (test group), Vc is the hindpaw volume of a non-compound-treated animal ([…] vehicle only-the control group), the Vv is the hindpaw volume of a vehicle ([…]) treated animal which received ICFA with no collagen II (negative control group).

| Structure (SMILES) | inhibition in vivo at 25 mg/kg [1] [%] | Inhibition of Collagen-Induced Arthritis, % inhibition ([2]; 25 mg./kg.) [%] | Inhibition of Collagen-Induced Arthritis, % inhibition ([2]; 15 mg./kg.) [%] |
| --- | --- | --- | --- |
| Cc1cccc(CC2(O)C(=O)OC3C(O)COC32O)c1 (stereo not drawn) [Example 9] | 48 |  |  |
| O=C1OC2C(O)COC2(O)C1(O)Cc1cccc(F)c1 (stereo not drawn) [Example 7] | 57 | 100 |  |
| Cc1ccc(CC2(O)C(=O)OC3C(O)COC32O)cc1 (stereo not drawn) [Example 11] | 62 |  | 94 |
| O=C1OC2C(O)COC2(O)C1(O)Cc1ccc(F)cc1 (stereo not drawn) [Example 1, [3R-(3aα,6α,6aα)]-tetrahydro-3,3a,6-trihydroxy-3-[(4-fluorophenyl)methyl]furo[3,2-b]furan-2(3H)-one] | 62 | 94 |  |
| Cc1ccccc1CC1(O)C(=O)OC2C(O)COC21O (stereo not drawn) [Example 10] | 48 |  |  |
| O=C1OC2C(O)COC2(O)C1(O)Cc1ccccc1Cl (stereo not drawn) [Example 4] | 38 |  |  |
| O=C1OC2C(O)COC2(O)C1(O)Cc1ccc(Cl)cc1 (stereo not drawn) [Example 5] | 52 |  | 81 |
| Cc1ccc(C)c(CC2(O)C(=O)OC3C(O)COC32O)c1 (stereo not drawn) [Example 12] | 58 | 23 |  |
| O=C1OC2C(O)COC2(O)C1(O)Cc1cccc(Br)c1 (stereo not drawn) [Example 2] | 45 |  |  |
| O=C1OC2C(O)COC2(O)C1(O)Cc1ccccc1F (stereo not drawn) [Example 6] | 33 |  |  |
| O=C1OC2C(O)COC2(O)C1(O)Cc1cccc(Cl)c1 (stereo not drawn) [Example 3] | 55 |  | 100 |
| O=C1OC2C(O)COC2(O)C1(O)Cc1ccc(C(F)(F)F)cc1 (stereo not drawn) [Example 8] | 55 |  |  |
